Laboratory results from patent US8337907B2, “Use of volatile oil from plants in preparing medicaments for preventing and treating diabetes” (priority 2007, dated 2012).
Where two headings read alike, the source gives them in different places.

What was measured:
[1] = cited from earlier work
[2] = water, ethanol; cited from earlier work
type 2 diabetes patients = details: for postprandial blood glucose peak at breakfast: 0.9 ml at three meals daily, 7 days
Description: Patient keep measurable middling food and drink in the interim.

healthy volunteers = assay: test to healthy volunteers; format: in vivo, human; details: for postprandial blood glucose peak at breakfast: 0.9 ml at three meals daily, 7 days
Description: A person, Healthy have not any disease.
A person, healthy without any disease. fasting blood glucose was waved in 5.0-5.4 mmol/L (79-96 mg/dl), in postprandial blood glucose 8-12.2 mmol/L ([…]) between. Abnormal glucose tolerance test.

[3] = system: type 2 diabetes rat model; assay: test of type 2 diabetes rat model (streptozotocin, fast-generated NIDDM model); format: in vivo, Wistar rats; set-up: unit not given here; details: 2.4 ml/kg intubated, fasting 4 hours, blood 2 hours after dose; before treatment 27.14 ± 1.154; p<0.01
healthy rats = assay: blood glucose of healthy rats; details: rat, in vivo
[4] = system: type 1 diabetes rat model (IDDM); assay: test of type 1 diabetes rat model (streptozotocin, day 3-6 after injection); format: in vivo, rats; details: 2.4 ml/kg intubated, 2 hours after dose
Excerpt: Establishment of a type 1 diabetes rat test model. Recent years, more people have definitely expressed that viewed streptozotocin-induced of diabetes test model. Although, it is a model of type 1 diabetes in principle, but can using as a model of type 2 diabetes.

[5] = system: delayed type diabetic Wistar rat model (type 1 diabetes); assay: delayed type streptozotocin plus CFA/IFA type 1 diabetes rat model; format: in vivo, Wistar rats; set-up: unit not given here; details: table: d-limonene 0.8 ml/kg; fasting 4 hours, 2 hours after dose; before treating 24.4 ± 2.958; p<0.01
[6] = system: drug-induced diabetic rats; assay: blood glucose in drug-induced diabetic rats, summary statement; format: in vivo; details: oral 0.8-2.4 ml/kg, within 0.5-2 hours
Excerpt: The present invent can reduce fasting blood glucose of that severe case streptozotocin-induced rats of type 1 and type 2 diabetes.

[7] = Example 6 patient, treatment for 12 weeks
[8] = Example 7 patient, 7 days treatment

## C=C(C)C1CC=C(C)CC1 (stereo not shown) [Limonene, 1-methyl-4-prop-1-en-2-yl-cyclohexene]
[1]; from initial limonene, after oral administration
  Perilla acid methyl ester and Dihydrotestosterone Perilla acid methyl ester in plasma: 5%
[1]; in vivo
  eliminated in the CO2 exhaled: 2%
  eliminated in the dejecta: 5%
[1]; of limonene in plasma
  converted to primary metabolites Dihydrotestosterone acid Perilla and Perilla acid: about 35%
[1]; of the initial volume
  converted to limonene 1,2-diol: about 18%
[1]; within 24 hours
  eliminated in the urine: about 60%
[2]
  solubility: do not in water but in ethanol

## C=C(C)[C@H]1CC=C(C)CC1 [d-limonene, (4R)-1-methyl-4-prop-1-en-2-ylcyclohexene]
Type 2 diabetes patients; Example 6 patient, before: under 15.6 mmol/L
  postprandial blood glucose peak at breakfast: 11.8 mmol/L
Type 2 diabetes patients; Example 6 patient, 6-8 hours after the meal, after 12 weeks
  hypoglycemic reaction without food: have not hypoglycemic reaction
Type 2 diabetes patients; Example 6 patient, 7 days treatment
  time of postprandial blood glucose peak: 1.25 h
Type 2 diabetes patients; [7]
  peak value time: 0.75 h
  postprandial blood glucose peak value: 10.4 mmol/L
Type 2 diabetes patients; Example 7 patient, before: maximum 23 mmol/L
  postprandial blood glucose peak at breakfast: 18.7 mmol/L
Type 2 diabetes patients; [8]
  blood glucose level average reduce, before to after treating: 6.99 mmol/L
  time of postprandial blood glucose peak: 1.25 h
Type 2 diabetes patients; type 2 diabetes patients, 0.9 ml after three meals daily
  effect on postprandial blood glucose levels: clear and stably reduce postprandial blood glucose levels
Healthy volunteers; Example 8, healthy person
  blood glucose compared before and after treatment: blood glucose basically unchanged
  time of postprandial blood glucose peak: 0.5 h
  postprandial blood glucose peak at breakfast: 6.3 to 8.4 mmol/L
Healthy volunteers; Example 9, person
  blood glucose compared before and after treatment: blood glucose basically unchanged
  time of postprandial blood glucose peak: 0.5 h
Healthy volunteers; Example 9, person, abnormal glucose tolerance test, before 8-12.2 mmol/L
  postprandial blood glucose peak at breakfast: 10.3 to 11.7 mmol/L
Healthy volunteers; human, in vivo
  effect on postprandial or fasting blood glucose level in healthy: do not reduce postprandial or fasting blood glucose level
[3]
  fasting glucose after treatment: 19.39 ± 6.064
Healthy rats
  effect on blood glucose of healthy rats: do not reduce blood glucose of healthy rats
[1]; after oral administration
  absorption from the gastrointestinal: absorbed rapidly
[1]; within 48 hours
  absorbed drug excreted by the urethra: 75-95%
[4]; IDDM group 25.27 ± 2.632, p<0.01
  Blood glucose, First day: 20.26 ± 5.039 mmol/L
[4]; IDDM group 25.97 ± 2.966, p>0.05
  Blood glucose, Four day: 23.32 ± 4.891 mmol/L
[4]; IDDM group 26.08 ± 3.896, p<0.05
  Blood glucose, Third day: 21.88 ± 5.754 mmol/L
[4]; IDDM group 26.17 ± 2.858, p<0.05
  Blood glucose, 1-4 days Average: 21.89 ± 5.230 mmol/L
[4]; IDDM group 27.36 ± 1.243, p<0.01
  Blood glucose, Second day: 22.08 ± 5.421 mmol/L
[5]
  fasting glucose after treating: 17.45 ± 1.886
[6]
  effect on blood glucose level: blood glucose level reduce a lot
